Results from patent US7960395B2, “5,7-disubstituted thiazolo[4,5-d]pyrimidines for the selective inhibition of chemokine receptors” (AstraZeneca AB, priority 2006, dated 2011).

The compounds below were run against T1, hCX3CR1 (Homo sapiens, UniProt P49238) (assay: in vitro hCX3CR1 binding assay ([125I]-fractalkine competition binding, membranes)). Conditions: final compounds.
T1 construct: expressed in transfected cells; host or cells: human embryonic kidney suspension (HEKS) 293 cells stably expressing chimeric G-protein Gαqi5; membranes prepared from them
T1 sequence (P49238 1-355): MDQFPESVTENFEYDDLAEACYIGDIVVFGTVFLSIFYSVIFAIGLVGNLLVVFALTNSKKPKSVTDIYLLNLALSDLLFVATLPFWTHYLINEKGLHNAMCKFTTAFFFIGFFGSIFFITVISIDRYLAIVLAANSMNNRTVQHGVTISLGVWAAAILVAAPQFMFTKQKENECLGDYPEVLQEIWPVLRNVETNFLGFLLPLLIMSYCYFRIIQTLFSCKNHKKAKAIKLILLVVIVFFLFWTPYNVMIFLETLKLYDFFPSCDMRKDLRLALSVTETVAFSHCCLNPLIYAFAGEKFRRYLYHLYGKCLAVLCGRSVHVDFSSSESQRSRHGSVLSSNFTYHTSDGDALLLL
Source text: Recombinant human fractalkine (hCX3CL1) and recombinant human interleukin-8 (IL-8 or hCXCL8) were purchased from PeproTech Inc., UK. Recombinant [^125I]-fractalkine (human) and [^125I]hIL-8 with the specific activity of 2200 Ci/mmol, was purchased from NEN® Life Science Products, Inc., UK. Fluo-4-AM was purchased from Molecular Probes, US. All other chemicals were of analytical grade.
The complete human CX3CR1 cDNA (GenBank accession number U20350) was extracted from human brain mRNA (Superscript, Life Technologies) and ligated into pCR-Blunt II TOPO vector (InVitrogen). The insert corresponding hCX3CR1 was isolated and further subcloned into pcDNA3.1zeo. Plasmid DNA was prepared using Plasmid Midi Kit (Qiagen). Using Superfect Transfection Reagent (Qiagen) according to the manufacturer's protocol the expression plasmid for hCX3CR1 was then introduced into human embryonic kidney suspension (HEKS) 293 cell line containing a vector for stable expression of a chimeric G-protein Gαqi5. A stable clone was generated utilizing zeocin (500 μg/mL) and hygromycin (100 μg/mL) selection. For further applications the cells were maintained in Dulbecco's modified Eagle's medium/Ham's nutrient mix F12 (DMEM/F12) containing pyridoxine and supplemented with 10% (v/v) fetal bovine serum, 2 mM L-glutamine, 100 U/ml penicillin and […] streptomycin, 250 μg/mL zeocin and 100 μg/mL hygromycin.
Cells are grown at 37° C. and 5% CO2 and harvested at 60-80% confluence in buffer containing 10 mM Tris-HCl pH 7.4, 5 mM EDTA, 0.1 mg/mL bacitracin. The cells are centrifuged at 300×g for 10 min and the pellet is resuspended in harvesting buffer (10 mM Tris-HCl, pH 7.4, 5 mM ethylenediaminetetra-aceticacid (EDTA) and 0.1 mg/mL bacitracin), pooled and homogenised using a Dounce homogeniser. The homogenate is centrifuged in 48000×g for 10 min and resuspended in harvesting buffer using Ultra-Turrax T8. Membrane aliquots are stored at −80° C. Protein concentration was determined in microtiter plates as described by Harrington (1990, Anal. Biochem. 186, 285-287).
Competition binding studies of [^125I]fraktalkine were performed in 2 mL 96-deep-well plates (Beckman, Germany) in a total volume of 1000 μL/well. Each well contained […] [^125I]-fractalkine and membrane equivalent to receptor concentration of 1 μM in assay buffer (50 mM Hepes-KOH, pH 7.4, 10 mM MgCl2, 1 mM EDTA, 0.1% (w/v) gelatine). Ten concentrations (2 points/log unit) of the test compounds were pre-dissolved in DMSO and added to reach a final concentration of 1% (v/v) DMSO. The assay was initiated with the addition of membranes and incubated at 25° C. for 24 h. The reactions were stopped by rapid filtration through Whatman GF/B glass fiber filters pretreated with 0.3% polyethylimine and subsequent washing with ice-cold buffer (10 mM Hepes-KOH pH 7.4, 500 mM NaCl) using a Brandel receptor binding harvester. Scintillation cocktail was added and radioactivity was determined in a Packard 2500TR liquid scintillation counter. (Perkin Elmer, USA)

SMILES | Ki
CCC[C@H](CO)N(C)c1nc(S[C@@H](C)c2ccc(Cl)nc2)nc2[nH]c(=O)sc12 [Example 7, 5-{[(1S)-1-(6-Chloropyridin-3-yl)ethyl]thio}-7-[[(1R)-1-(hydroxymethyl)butyl](methyl)amino][1,3]thiazolo[4,5-d]pyrimidin-2(3H)-one] | 440 nM
CCC[C@H](CO)Nc1nc(S[C@@H](C)c2ccc(Cl)nc2)nc2[nH]c(=O)sc12 [Example 6, 5-{[(1S)-1-(6-Chloropyridin-3-yl)ethyl]thio}-7-{[(1R)-1-(hydroxymethyl)butyl]amino}[1,3]thiazolo[4,5-d]pyrimidin-2(3H)-one] | 21.4 nM
CC(C)C[C@H](CO)Nc1nc(S[C@@H](C)c2ncccc2F)nc2[nH]c(=O)sc12 [Example 4, 5-{[(1S)-1-(3-Fluoropyridin-2-yl)ethyl]thio}-7-{[(1R)-1-(hydroxymethyl)-3-methylbutyl]amino}[1,3]thiazolo[4,5-d]pyrimidin-2(3H)-one] | 18 nM
CC(C)C[C@H](CO)Nc1nc(S[C@@H](C)c2ccc(Cl)cn2)nc2[nH]c(=O)sc12 [Example 1, 5-{[(1S)-1-(5-Chloropyridin-2-yl)ethyl]thio}-7-{[(1R)-1-(hydroxymethyl)-3-methylbutyl]amino}[1,3]thiazolo[4,5-d]pyrimidin-2(3H)-one] | 5.8 nM
CC(C)C[C@H](CO)Nc1nc(S[C@@H](C)c2ccc(F)cn2)nc2[nH]c(=O)sc12 [Example 2, 5-{[(1S)-1-(5-Fluoropyridin-2-yl)ethyl]thio}-7-{[(1R)-1-(hydroxymethyl)-3-methylbutyl]amino}[1,3]thiazolo[4,5-d]pyrimidin-2(3H)-one] | 20 nM

More lines, now with the values ahead:

Ki | SMILES
1.5 nM | CC(C)C[C@H](CO)Nc1nc(S[C@@H](C)c2ccncc2F)nc2[nH]c(=O)sc12 [Example 8b, 5-{[(1S)-1-(3-Fluoropyridin-4-yl)ethyl]thio}-7-{[(1R)-1-(hydroxymethyl)-3-methylbutyl]amino}[1,3]thiazolo[4,5-d]pyrimidin-2(3H)-one]
97 nM | CC(C)C[C@H](CO)Nc1nc(S[C@H](C)c2ccncc2F)nc2[nH]c(=O)sc12 [Example 8a, 5-{[(1R)-1-(3-Fluoropyridin-4-yl)ethyl]thio}-7-{[(1R)-1-(hydroxymethyl)-3-methylbutyl]amino}[1,3]thiazolo[4,5-d]pyrimidin-2(3H)-one]
